Km data for one compound are collected here from article PMC12364333, “Degradation of catecholate, hydroxamate, and carboxylate model siderophores by extracellular enzymes” (PLOS One, 2025).

The test system of the assay is T1, phenol oxidase (a tyrosinase).
T1 construct: gene PPO3
Put plainly: initial rates of product formation ([…] h); Lineweaver-Burk plot. The class given is biochemical, Agaricus bisporus. To be noted: O2 as oxidant; buffered at pH 7.0 (25 mM phosphate) and 20 °C in the general protocol; 0.01-1 mM protochelin; apo siderophore.

Broadly, the Km is the substrate concentration at which the rate is half of its maximum.

Turning to `O=C(NCCCCNC(=O)[C@H](CCCCNC(=O)c1cccc(O)c1O)NC(=O)c1cccc(O)c1O)c1cccc(O)c1O` [protochelin], the Km is 430 µM.
